Results on 11 compounds are retold here after publication PMC3171737 (Journal of medicinal chemistry, 2011).

pEC50, pIC50: −log10 of the molar value. Read-outs that look alike come from different tables or passages of the source. A value given as a limit tells only on which side of the number the result lay.

The test system of experiment [1] is H3K9me2 levels in MDA-MB-231 cells. The experiment is described as follows: H3K9me2 In-Cell Western. It counts as cell-based.
Experiment [2] has as its system H3K9me2 levels in PC3 cells. In words: H3K9me2 ICW assay, PC3. The following applies: Homo sapiens, PC-3, 48 h, read-out: ICW IC50. It counts as cell-based.
In the next experiment the test system is MDA-MB-231 cells. In words: MTT cell toxicity assay, MDA-MB-231. It is filed as cell-based. The following applies: Homo sapiens, MDA-MB-231, 48 h, read-out: MTT EC50. In general terms: Tetrazolium dyes change colour on reduction, which living cells bring about.
Experiment [3] concerns H3K9me2 levels in MCF7 cells. The experiment is described as follows: H3K9me2 ICW assay, MCF7. It counts as cell-based. To be noted: Homo sapiens, MCF7, 48 h, read-out: ICW IC50.
Another experiment concerns HCT116 p53−/− cells. The experiment is described as follows: MTT assay, HCT116 p53−/−. It is filed as cell-based. The following applies: Homo sapiens, HCT-116, 48 h, read-out: MTT EC50.
The subject of experiment [4] is H3K9me2 levels in 22RV1 cells. The experiment is described as follows: H3K9me2 ICW assay, 22RV1. It counts as cell-based. The following applies: Homo sapiens, 22Rv1, 48 h, read-out: ICW IC50.
A further experiment deals with HCT116 wt cells. In words: MTT assay, HCT116 wt. It is filed as cell-based. The following applies: Homo sapiens, HCT-116, 48 h, read-out: MTT EC50.
Experiment [5] has as its system H3K9me2 levels in HCT116 wt cells. In words: H3K9me2 ICW assay, HCT116 wt. It counts as cell-based. To be noted: Homo sapiens, HCT-116, 48 h, read-out: ICW IC50.
The target of another experiment is T1, G9a (Homo sapiens, UniProt Q96KQ7).
T1 sequence (Q96KQ7 1-1210): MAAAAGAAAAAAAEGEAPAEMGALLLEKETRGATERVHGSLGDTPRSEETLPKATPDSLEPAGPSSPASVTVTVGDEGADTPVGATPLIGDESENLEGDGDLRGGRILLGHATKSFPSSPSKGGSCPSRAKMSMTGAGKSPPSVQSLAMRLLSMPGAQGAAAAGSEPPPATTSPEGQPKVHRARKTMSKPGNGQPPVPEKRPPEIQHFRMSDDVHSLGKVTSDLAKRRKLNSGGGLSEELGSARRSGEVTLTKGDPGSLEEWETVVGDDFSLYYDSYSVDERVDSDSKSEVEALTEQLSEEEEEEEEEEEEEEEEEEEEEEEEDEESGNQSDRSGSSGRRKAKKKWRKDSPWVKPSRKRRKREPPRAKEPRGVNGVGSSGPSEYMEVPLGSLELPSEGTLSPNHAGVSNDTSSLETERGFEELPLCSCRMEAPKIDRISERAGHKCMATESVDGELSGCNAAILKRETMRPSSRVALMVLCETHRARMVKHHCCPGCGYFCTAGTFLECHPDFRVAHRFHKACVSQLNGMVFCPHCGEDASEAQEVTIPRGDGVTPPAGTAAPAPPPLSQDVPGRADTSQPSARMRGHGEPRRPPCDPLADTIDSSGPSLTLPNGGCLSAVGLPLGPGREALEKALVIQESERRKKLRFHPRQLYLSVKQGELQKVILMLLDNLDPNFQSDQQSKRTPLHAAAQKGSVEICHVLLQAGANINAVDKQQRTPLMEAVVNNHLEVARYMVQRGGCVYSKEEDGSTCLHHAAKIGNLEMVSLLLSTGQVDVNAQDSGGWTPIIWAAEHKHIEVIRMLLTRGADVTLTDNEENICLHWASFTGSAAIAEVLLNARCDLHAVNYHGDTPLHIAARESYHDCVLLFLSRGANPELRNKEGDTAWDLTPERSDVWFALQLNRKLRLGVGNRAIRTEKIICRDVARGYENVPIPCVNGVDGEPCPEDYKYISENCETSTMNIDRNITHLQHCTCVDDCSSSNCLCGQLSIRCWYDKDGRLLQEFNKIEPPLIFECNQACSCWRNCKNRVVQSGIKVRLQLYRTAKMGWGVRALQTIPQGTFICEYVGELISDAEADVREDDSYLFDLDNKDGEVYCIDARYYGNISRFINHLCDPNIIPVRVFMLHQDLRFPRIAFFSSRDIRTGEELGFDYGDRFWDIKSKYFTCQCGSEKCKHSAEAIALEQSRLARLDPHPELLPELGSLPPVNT
The experiment is described as follows: G9a SAHH-coupled assay. It is filed as biochemical. The following applies: versus compound 5.

Setting [6] is: Homo sapiens, MDA-MB-231, 48 h, read-out: Cellular IC50 (Reduction of H3K9me2 (ICW)), Table 2, MDA-MB-231 cells, 48 h.
The mark [7] stands for this setting: Homo sapiens, MDA-MB-231, 48 h, read-out: Cellular IC50 (Reduction of H3K9me2 (ICW)), Table 4, MDA-MB-231 cells, 48 h.
Where [8] appears, read: read-out: Cellular IC50 (Reduction of H3K9me2 (ICW)), Table 2, MDA-MB-231 cells, 48 h.

A word on the pIC50: it is the IC50 on a negative log10 scale, so that one unit is a factor of ten. With `COc1cc2c(NC3CCN(C)CC3)nc(N3CCCN(C)CC3)nc2cc1OCCCN(C)C` [Compound 2], the pIC50 in experiment [1] (Homo sapiens, MDA-MB-231, 48 h, read-out: Cellular IC50 (Reduction of H3K9me2 (ICW)), Table 1, MDA-MB-231 cells, 48 h) was below 5.30.

One may read the pEC50 as the EC50 on a negative log10 scale, so that one unit is a factor of ten. For the compound `COc1cc2c(NC3CCN(C(C)C)CC3)nc(C3CCCCC3)nc2cc1OCCCN1CCCC1` [Compound 5, 2-Cyclohexyl-N-(1-isopropylpiperidin-4-yl)-6-methoxy-7-(3-(pyrrolidin-1-yl)propoxy)quinazolin-4-amine], the pIC50 is 7.09 in experiment [1] (Homo sapiens, MDA-MB-231, 48 h, read-out: Cellular IC50 (Reduction of H3K9me2 (ICW))); at least 7.00 in experiment [1] (setting [6]); 7.09 in [1] (Homo sapiens, MDA-MB-231, 48 h, read-out: ICW IC50); 7.23 in [2]; 7.15 in [3]; 7.32 in experiment [4]. In addition, in experiment [5], the pIC50 is 6.68. For the same compound, the pEC50 in the experiment with MDA-MB-231 cells, with HCT116 p53−/− cells and in the experiment with HCT116 wt cells was 4.96 each time.

Take `COc1cc2c(NC3CCN(C4CCCCC4)CC3)nc(N3CCCN(C(C)C)CC3)nc2cc1OCCCN1CCCCC1` [Compound 6, N-(1-cyclohexylpiperidin-4-yl)-2-(4-isopropyl-1,4-diazepan-1-yl)-6-methoxy-7-(3-(piperidin-1-yl)propoxy)quinazolin-4-amine]: the negative-log IC50 (pIC50) in experiment [1] (setting [7]) is above 7.22.

`COc1cc2c(NC3CCN(CC4CCCCC4)CC3)nc(N3CCCN(C(C)C)CC3)nc2cc1OCCCN1CCCCC1` [Compound 7, N-(1-(cyclohexylmethyl)piperidin-4-yl)-2-(4-isopropyl-1,4-diazepan-1-yl)-6-methoxy-7-(3-(piperidin-1-yl)propoxy)quinazolin-4-amine]: in [1] (setting [7]), the pIC50 was above 7.22.

Regarding `COc1cc2c(NC3CCN(C(C)C)CC3)nc(N3CCCN(C4CCCCC4)CC3)nc2cc1OCCCN1CCCC1` [Compound 17d, 2-(4-Cyclohexyl-1,4-diazepan-1-yl)-N-(1-isopropylpiperidin-4-yl)-6-methoxy-7-(3-(pyrrolidin-1-yl)propoxy)quinazolin-4-amine], the figures for the pIC50 in experiment [1] (setting [6]) and in experiment [1] (setting [8]) were at least 7.00 and 7.00, respectively.

As to `COc1cc2c(NC3CCN(C(C)C)CC3)nc(N3CCCN(CC4CCCCC4)CC3)nc2cc1OCCCN1CCCC1` [Compound 17e, 2-(4-(Cyclohexylmethyl)-1,4-diazepan-1-yl)-N-(1-isopropylpiperidin-4-yl)-6-methoxy-7-(3-(pyrrolidin-1-yl)propoxy)quinazolin-4-amine], the pIC50 in experiment [1] (setting [6]) is at least 7.00.

For `COc1cc2c(NC3CCN(C(C)C)CC3)nc(N3CCCN(Cc4ccccc4)CC3)nc2cc1OCCCN1CCCC1` [Compound 17g, 2-(4-Benzyl-1,4-diazepan-1-yl)-N-(1-isopropylpiperidin-4-yl)-6-methoxy-7-(3-(pyrrolidin-1-yl)propoxy)quinazolin-4-amine], the pIC50 in experiment [1] (setting [6]) was at least 7.00.

Regarding `COc1cc2c(NC3CCN(C(C)C)CC3)nc(N3CCCCCC3)nc2cc1OCCCN1CCCC1` [Compound 17i, 2-(Azepan-1-yl)-N-(1-isopropylpiperidin-4-yl)-6-methoxy-7-(3-(pyrrolidin-1-yl)propoxy)quinazolin-4-amine], the pIC50 is at least 7.00 in experiment [1] (setting [6]) and 7.00 in experiment [1] (setting [8]).

As to `COc1cc2c(NC3CCN(C(C)C)CC3)nc(C3CCCCC3)nc2cc1OCCCN1CCCCC1` [Compound 24a, 2-Cyclohexyl-N-(1-isopropylpiperidin-4-yl)-6-methoxy-7-(3-(piperidin-1-yl)propoxy)quinazolin-4-amine], the “Fold lower potency in the G9a biochemical assay compared to compound 5” value at G9a is listed as “about 10 fold”.

Turning to `COc1cc2c(NC3CCN(C(C)C)CC3)nc(N3CCCN(C(C)C)CC3)nc2cc1OCCCN1CCCCC1` [Compound 25, 2-(4-Isopropyl-1,4-diazepan-1-yl)-N-(1-isopropylpiperidin-4-yl)-6-methoxy-7-(3-(piperidin-1-yl)propoxy)quinazolin-4-amine], the pIC50 in experiment [1] (setting [7]) is above 7.22.

With `COc1cc2c(NC3CCN(C4CCCCC4)CC3)nc(N3CCCN(C)CC3)nc2cc1OCCCN1CCCCC1` [Compound 26, N-(1-cyclohexylpiperidin-4-yl)-6-methoxy-2-(4-methyl-1,4-diazepan-1-yl)-7-(3-(piperidin-1-yl)propoxy)quinazolin-4-amine], in experiment [1] (setting [7]), the pIC50 is above 7.22.
